For experiment [1], the target named is T1, human galectin-1 (Gal-1, full length) (Homo sapiens, UniProt P09382).
T1 construct: Gal-1 is a prototype galectin consisting of a single CRD and was used in full length; 6xHis tag with TEV protease site (N, cleaved yes); made in house; host or cells: BL21 Escherichia coli (pET-15b)
The experiment can be described thus: Competitive fluorescence polarization assay, Gal-1. In kind it is binding. How it is done:
(§1) Our investigation of the structure–activity relationship of N-aryl-N-lactosylamides started with an initial screening of substituted acetanilides (Table ). These compounds can be readily synthesized from a wide range of commercially available substituted anilines. Affinity was evaluated using a fluorescence polarization assay, which enables reliable determination of dissociation constants (K d) between small molecules and galectins. All inhibitors in this series were tested against the two most common human galectins: Gal-1 and Gal-3. Gal-1 is a prototype galectin consisting of a single CRD and was used in full length. In the case of Gal-3, which consists of the C-terminal CRD and N-terminal unfolded region, only the C-terminal domain was used (Gal-3C). Affinities were compared to methyl β-lactoside (β-LacOMe) as a baseline.
(§2) Fluorescence polarization experiments for determining inhibitor affinities were performed using the same instrumentation and settings as described for the direct binding experiments. […] The galectin–probe mixture was subsequently added using a Certus Flex liquid handler (Fritz Gyger AG, Switzerland) to reach a final volume of 5 μL. Anisotropy was measured after 30–60 min incubation at 25 °C. Inhibitor dissociation constants (K d) were calculated using Wang’s exact cubic model for competitive binding implemented in the BindCurve package. Protein and probe concentrations used in these competitive experiments are provided in the Supporting Information.
(§3) Competitive binding was modeled by Wang’s exact cubic model,3 which is written as […]
(§4) r = rmin + (rmax − rmin) 3 (6) […]
(§5) where r, rmin and rmax have the same meaning as in Equation 1. The coefficients a, b, and c are […]
(§6) a = Kd∗ + Kd + [L∗]T + [L]T − [R]T (7) b = Kd∗([L]T − [R]T) + Kd([L∗]T − [R]T) + Kd∗ Kd (8) […]
(§7) where Kd∗ is the dissociation constant of the probe, Kd is the dissociation constant of the […]
(§8) the unlabeled ligand, and [R]T is the total concentration of the receptor. The angle θ is defined […]
(§9) In the competitive binding experiments, the values of [L∗]T, [R]T and Kd∗ are known and [L]T is titrated. The values of minimal and maximal anisotropy rmin and rmax were fixed during fitting at the values of the minimal and maximal asymptotes obtained from the direct binding experiments. The value of Kd was calculated as the only unfixed parameter in the model.
(§10) Experimental constants used for the competitive fluorescence polarization experiments are […]
(§11) Table S2. Experimental constants used for competitive fluorescence polarization experiments. […]

The target of experiment [2] is T2, human galectin-3C (Gal-3C, C-terminal CRD of galectin-3) (Homo sapiens, UniProt P17931).
T2 construct: only the C-terminal domain was used (Gal-3C); 6xHis tag with TEV protease site (N, cleaved yes); made in house; host or cells: BL21 Escherichia coli (pET-15b)
Description: Competitive fluorescence polarization assay, Gal-3C. It is filed as binding. How it is done:
as §1, §2, §3, §4, §5, §6, §7, §8, §9, §10, §11

[3] abbreviates: CSV supplement, unrounded mean, read-out: Gal1_IC50_mean_uM.
Setting [4] is: CSV supplement, unrounded mean, read-out: Gal1_Kd_mean_uM.
[5] abbreviates: competitive fluorescence polarization, mean ± SD, read-out: Kd Gal-1.
The mark [6] stands for this setting: four-parameter logistic model, mean ± SD, read-out: IC50 Gal-1.
Setting [7] is: CSV supplement, unrounded mean, read-out: Gal3C_IC50_mean_uM.
[8] abbreviates: CSV supplement, unrounded mean, read-out: Gal3C_Kd_mean_uM.
The mark [9] stands for this setting: competitive fluorescence polarization, mean ± SD, read-out: Kd Gal-3C.
Setting [10] is: four-parameter logistic model, mean ± SD, read-out: IC50 Gal-3C.

Like-named read-outs stand apart in the source and are kept apart here.

T1 sequence (P09382 2-135): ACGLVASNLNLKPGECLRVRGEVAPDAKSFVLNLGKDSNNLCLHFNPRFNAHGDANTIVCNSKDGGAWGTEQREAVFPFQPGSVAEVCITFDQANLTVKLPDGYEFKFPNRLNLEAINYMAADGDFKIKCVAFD
T2 sequence (P17931 118-248 limits assumed): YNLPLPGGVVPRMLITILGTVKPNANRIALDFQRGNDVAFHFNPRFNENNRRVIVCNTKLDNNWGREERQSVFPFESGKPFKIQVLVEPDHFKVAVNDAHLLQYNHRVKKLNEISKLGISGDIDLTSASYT

As to `CC(=O)N(c1ccccc1)[C@@H]1O[C@H](CO)[C@@H](O[C@@H]2O[C@H](CO)[C@H](O)[C@H](O)[C@H]2O)[C@H](O)[C@H]1O` [Compound 3a, N-[4-O-(β-D-Galactopyranosyl)-β-D-glucopyranosyl]-N-phenylacetamide], the IC50 in experiment [1] (setting [3]) was 908 µM; in experiment [1] (setting [6]), 910 ± 20 µM; in experiment [2] (setting [7]), 287 µM; in experiment [2] (setting [10]), 290 ± 1 µM. The Kd in experiment [1] (setting [4]) was determined as 586 µM; in experiment [1] (setting [5]) it was 590 ± 80 µM; in experiment [2] (setting [8]) it was 106 µM; in experiment [2] (setting [9]), 110 ± 30 µM. Also, the “improvement in affinity toward Gal-1 compared to β-LacOMe” value in experiment [1] (compared to β-LacOMe) is “approximately 2 fold”. In addition, the “improvement in affinity toward Gal-3C compared to β-LacOMe” value in experiment [2] (compared to β-LacOMe) is “approximately 2 fold”.
In the case of `CC(=O)N(c1cccc(-c2cn(C)nn2)c1)[C@@H]1O[C@H](CO)[C@@H](O[C@@H]2O[C@H](CO)[C@H](O)[C@H](O)[C@H]2O)[C@H](O)[C@H]1O` [Compound 3aa, N-[4-O-(β-D-Galactopyranosyl)-β-D-glucopyranosyl]-N-[3-(1-methyl-1H-1,2,3-triazol-4-yl)phenyl]acetamide], the IC50 in experiment [1] (setting [3]) was found to be 899 µM; in experiment [1] (setting [6]) it was 900 ± 100 µM; in experiment [2] (setting [7]), 191 µM; in experiment [2] (setting [10]) it was 190 ± 9 µM. The Kd in experiment [1] (setting [4]) was 571 µM; in experiment [1] (setting [5]), 570 ± 60 µM; in experiment [2] (setting [8]), 68.7 µM; in experiment [2] (setting [9]), 69 ± 20 µM.
Regarding `CC(=O)N(c1cc(Cl)cc(C(=O)O)c1)[C@@H]1O[C@H](CO)[C@@H](O[C@@H]2O[C@H](CO)[C@H](O)[C@H](O)[C@H]2O)[C@H](O)[C@H]1O` [Compound 3ab, N-[4-O-(β-D-Galactopyranosyl)-β-D-glucopyranosyl]-N-(3-carboxy-5-chlorophenyl)acetamide], the IC50 in experiment [1] (setting [3]) came out at 957 µM; in experiment [1] (setting [6]), 960 ± 40 µM; in experiment [2] (setting [7]), 130 µM; in experiment [2] (setting [10]) it was 130 ± 3 µM. Further, the Kd in experiment [1] (setting [4]) is 651 µM; in experiment [1] (setting [5]), 650 ± 100 µM; in experiment [2] (setting [8]) it was 50 µM; in experiment [2] (setting [9]), 50 ± 9 µM.
As for `CC(=O)N(c1cc(Br)cc(C(=O)O)c1)[C@@H]1O[C@H](CO)[C@@H](O[C@@H]2O[C@H](CO)[C@H](O)[C@H](O)[C@H]2O)[C@H](O)[C@H]1O` [Compound 3ac, N-[4-O-(β-D-Galactopyranosyl)-β-D-glucopyranosyl]-N-(3-bromo-5-carboxyphenyl)acetamide], the IC50 in experiment [1] (setting [3]) was determined as 967 µM; in experiment [1] (setting [6]), 970 ± 30 µM; in experiment [2] (setting [7]), 160 µM; in experiment [2] (setting [10]) it was 160 ± 20 µM. Besides, the Kd in experiment [1] (setting [4]) stood at 625 µM; in experiment [1] (setting [5]) it was 630 ± 100 µM; in experiment [2] (setting [8]), 60.2 µM; in experiment [2] (setting [9]) it was 60 ± 10 µM.
For `COC(=O)c1cc(N(C(C)=O)[C@@H]2O[C@H](CO)[C@@H](O[C@@H]3O[C@H](CO)[C@H](O)[C@H](O)[C@H]3O)[C@H](O)[C@H]2O)c2cc[nH]c2c1` [Compound 3ae, N-[4-O-(β-D-Galactopyranosyl)-β-D-glucopyranosyl]-N-[6-(methylcarboxy)-1H-indol-4-yl]acetamide], the IC50 in experiment [1] (setting [3]) was 1030 µM; in experiment [1] (setting [6]) it was 1000 ± 100 µM; in experiment [2] (setting [7]), 42.5 µM; in experiment [2] (setting [10]) it was 43 ± 4 µM. Further, the Kd in experiment [1] (setting [4]) came to 637 µM; in experiment [1] (setting [5]) it was 640 ± 90 µM; in experiment [2] (setting [8]), 15.9 µM; in experiment [2] (setting [9]) it was 16 ± 2 µM.
`CC(=O)N(c1ccc(C)cc1)[C@@H]1O[C@H](CO)[C@@H](O[C@@H]2O[C@H](CO)[C@H](O)[C@H](O)[C@H]2O)[C@H](O)[C@H]1O` [Compound 3b, N-[4-O-(β-D-Galactopyranosyl)-β-D-glucopyranosyl]-N-(4-methylphenyl)acetamide]: the IC50 in experiment [1] (setting [3]) is 919 µM; in experiment [1] (setting [6]), 920 ± 90 µM; in experiment [2] (setting [7]) it was 404 µM; in experiment [2] (setting [10]), 400 ± 50 µM. Moreover, the Kd in experiment [1] (setting [4]) is 481 µM; in experiment [1] (setting [5]) it was 480 ± 100 µM; in experiment [2] (setting [8]) it was 133 µM; in experiment [2] (setting [9]), 130 ± 20 µM.
Consider `C#Cc1cccc(N(C(C)=O)[C@@H]2O[C@H](CO)[C@@H](O[C@@H]3O[C@H](CO)[C@H](O)[C@H](O)[C@H]3O)[C@H](O)[C@H]2O)c1` [Compound 3c, N-[4-O-(β-D-Galactopyranosyl)-β-D-glucopyranosyl]-N-(3-ethynylphenyl)acetamide], for which the IC50 was determined as 1570 µM in experiment [1] (setting [3]), 1600 ± 300 µM in experiment [1] (setting [6]), 500 µM in experiment [2] (setting [7]) and 500 ± 30 µM in experiment [2] (setting [10]). Besides, the Kd in experiment [1] (setting [4]) came to 1010 µM; in experiment [1] (setting [5]), 1000 ± 70 µM; in experiment [2] (setting [8]), 182 µM; in experiment [2] (setting [9]), 180 ± 50 µM.
`CC(=O)N(c1cccc(C(F)(F)F)c1)[C@@H]1O[C@H](CO)[C@@H](O[C@@H]2O[C@H](CO)[C@H](O)[C@H](O)[C@H]2O)[C@H](O)[C@H]1O` [Compound 3d, N-[4-O-(β-D-Galactopyranosyl)-β-D-glucopyranosyl]-N-(3-trifluoromethylphenyl)acetamide]: the IC50 in experiment [1] (setting [3]) was determined as 1040 µM; in experiment [1] (setting [6]), 1000 ± 90 µM; in experiment [2] (setting [7]), 489 µM; in experiment [2] (setting [10]), 490 ± 60 µM. For the same compound, the Kd in experiment [1] (setting [4]) is 560 µM; in experiment [1] (setting [5]) it was 560 ± 100 µM; in experiment [2] (setting [8]), 160 µM; in experiment [2] (setting [9]), 160 ± 30 µM.
On to `CC(=O)N(c1ccc(F)cc1)[C@@H]1O[C@H](CO)[C@@H](O[C@@H]2O[C@H](CO)[C@H](O)[C@H](O)[C@H]2O)[C@H](O)[C@H]1O` [Compound 3e, N-[4-O-(β-D-Galactopyranosyl)-β-D-glucopyranosyl]-N-(4-fluorophenyl)acetamide], for which the IC50 in experiment [1] (setting [3]) worked out at 595 µM; in experiment [1] (setting [6]) it was 590 ± 70 µM; in experiment [2] (setting [7]), 275 µM; in experiment [2] (setting [10]), 270 ± 10 µM. Moreover, the Kd amounted to 322 µM in experiment [1] (setting [4]), 320 ± 100 µM in experiment [1] (setting [5]), 87.1 µM in experiment [2] (setting [8]) and 87 ± 10 µM in experiment [2] (setting [9]).
Turning to `CC(=O)N(c1cccc(F)c1)[C@@H]1O[C@H](CO)[C@@H](O[C@@H]2O[C@H](CO)[C@H](O)[C@H](O)[C@H]2O)[C@H](O)[C@H]1O` [Compound 3f, N-[4-O-(β-D-Galactopyranosyl)-β-D-glucopyranosyl]-N-(3-fluorophenyl)acetamide], the IC50 in experiment [1] (setting [3]) is 671 µM; in experiment [1] (setting [6]), 670 ± 30 µM; in experiment [2] (setting [7]) it was 305 µM; in experiment [2] (setting [10]) it was 300 ± 50 µM. For the same compound, the Kd in experiment [1] (setting [4]) worked out at 361 µM; in experiment [1] (setting [5]), 360 ± 20 µM; in experiment [2] (setting [8]), 98.1 µM; in experiment [2] (setting [9]), 98 ± 3 µM.
As for `CC(=O)N(c1ccccc1F)[C@@H]1O[C@H](CO)[C@@H](O[C@@H]2O[C@H](CO)[C@H](O)[C@H](O)[C@H]2O)[C@H](O)[C@H]1O` [Compound 3g, N-[4-O-(β-D-Galactopyranosyl)-β-D-glucopyranosyl]-N-(2-fluorophenyl)acetamide], the IC50 in experiment [1] (setting [3]) worked out at 931 µM; in experiment [1] (setting [6]), 930 ± 8 µM; in experiment [2] (setting [7]) it was 282 µM; in experiment [2] (setting [10]), 280 ± 20 µM. The Kd in experiment [1] (setting [4]) stood at 507 µM; in experiment [1] (setting [5]), 510 ± 30 µM; in experiment [2] (setting [8]) it was 93.2 µM; in experiment [2] (setting [9]) it was 93 ± 20 µM.
With `CC(=O)N(c1ccc(F)c(F)c1)[C@@H]1O[C@H](CO)[C@@H](O[C@@H]2O[C@H](CO)[C@H](O)[C@H](O)[C@H]2O)[C@H](O)[C@H]1O` [Compound 3h, N-[4-O-(β-D-Galactopyranosyl)-β-D-glucopyranosyl]-N-(3,4-difluorophenyl)acetamide], the IC50 came to 597 µM in experiment [1] (setting [3]), 600 ± 20 µM in experiment [1] (setting [6]), 284 µM in experiment [2] (setting [7]) and 280 ± 100 µM in experiment [2] (setting [10]). The Kd came to 399 µM in experiment [1] (setting [4]), 400 ± 20 µM in experiment [1] (setting [5]), 127 µM in experiment [2] (setting [8]) and 130 ± 80 µM in experiment [2] (setting [9]).

Values taken from paper PMC12670426 (Journal of Medicinal Chemistry, 2025).
